The test system of one data set is UGT1A1. The note with it: cited from earlier work.
Data set [1] is described as follows: Phase 1 clinical DDI study: steady-state plasma PK (noncompartmental analysis) with and without modafinil. To be noted: for AUClast GMR (geometric mean ratio) / Cmax GMR (geometric mean ratio): Day 21 (with modafinil) relative to Day 14 (without); for Effect of steady-state modafinil on exposure/PK (in words): Day 21 vs Day 14, modafinil 400 mg QD; for AUC(0-t) / half-life / Cmax / Tmax: human; for Tmax: read-out: Tmax, Median (range). Format: in vivo, Human. Here is the method:
Encorafenib 450 mg QD and binimetinib 45 mg BID were administered starting on Day 1. Patients then received continuous treatment of 400 mg QD modafinil on Day 15 through Day 21. Blood samples for measurement of plasma concentrations of encorafenib (and its metabolite, LHY746) and binimetinib (and its active metabolite, AR00426032), were collected at 0, 1, 2, 3, 4, 6 and 8 h post dose on Day 14 and Day 21.
Human PK plasma samples were analyzed for quantitation of all PK analytes at PPD (Middleton, Wisconsin, US) using validated, sensitive, and specific HPLC/MS/MS methods in compliance with laboratory SOPs.
PK parameters including, but not limited to, Cmax and AUClast were calculated for each participant using noncompartmental analysis (NCA) methods using the WinNonlin software package (Phoenix WinNonlin Professional, version 8.0 Pharsight Corporation, Mountain View, California) for PK analytes including encorafenib and its metabolite LHY746, and binimetinib and its metabolite AR00426032.
All patients who received at least one dose of any study drug were included in the Safety Set population. The Evaluable PK Set included all patients with sufficient concentration data to calculate at least one PK parameter for encorafenib and binimetinib on Days 14 and 21. Patients who discontinued, missed 3 or more consecutive doses of encorafenib prior to completion of the last PK sampling on Day 14, or required a dose reduction of encorafenib prior to completion of the last PK sampling on Day 14 were excluded from the Evaluable PK set. In addition, patients who missed any dose of study drugs on any of the PK days, or who vomited within 4 h after dosing on any of the PK days were excluded from Evaluable PK set.
An analysis of variance (ANOVA) was performed on the natural log (ln)-transformed Cmax and AUClast of encorafenib, LHY746, binimetinib, and AR00426032. The least squares means (LSM) geometric mean ratio (GMR) and associated 90% confidence interval (CI) for each PK parameter were calculated using the exponentiation of the difference between treatment LSM from the analyses on the ln-transformed parameters and expressed as a percentage of Day 21 relative to Day 14.

For data set [2] the following is noted: PBPK simulations conducted prior to the study; cited from earlier work.
In another data set the test system is CYP2C19. To be noted: cited from earlier work.
Data set [3] in a line: Extrapolation of strong CYP3A inducer effect on encorafenib from the moderate inducer effect (strong/moderate ratio approach). To be noted: extrapolated from the modafinil effect with strong/moderate ratios 1.15 to 2.43. An excerpt:
Another strategy to predict the effect strong induction may have on encorafenib PK, or the PK of other CYP3A substrates, but with fewer assumptions was proposed in a review by Molenaar-Kuijsten et al.. Based on a review of 12 approved oral anticancer drugs primarily metabolized by CYP3A, if no clinical DDI data were available for moderate inducers, an effect of 50% compared to strong inducers could be assumed. After expanding the dataset of Molenaar-Kuijsten to include 3 additional approved oral anti-cancer drugs (fuzuloparib, pirtobrutinib, and fedratinib) metabolized by CYP3A, we applied this approach in the opposite direction (lack of clinical data for the effect of strong CYP3A4 inducers) given available clinical DDI data generated in this study for encorafenib (Table 3). The median ratio of the decrease for a strong inducer to a moderate inducer was 1.56 and ranged from 1.15 for cobimetinib to 2.43 for palbociclib. […] The upper end of this range is consistent with PBPK simulations conducted prior to the study, indicating encorafenib exposures would decrease by ∼ 58% in combination with rifampin (based on a model with some simplifying assumptions) and would also be consistent with the recommendations based on in vitro data to avoid strong inducers in combination with encorafenib. […]

Another data set concerns CYP3A4. Also on record: method as in earlier work. To be noted: human liver microsomes; cited from earlier work. In general terms: Liver microsomes are vesicles of endoplasmic reticulum, rich in cytochrome P450 enzymes.
Details of data set [4]: method as in PMID 28611198. The note with it: cited from earlier work.
On the set-up of data set [5]: method as in PMID 37837178. The note with it: cited from earlier work.
Setting [6] is: Day 21, with modafinil 400 mg QD, steady state, plasma, patients.
Setting [7] is: plasma, oral, 400 mg, Day 21, with modafinil 400 mg QD, steady state, plasma, patients, read-out: AUClast, GM (CV%).
The mark [8] stands for this setting: plasma, oral, 400 mg, Day 21, with modafinil 400 mg QD, steady state, plasma, patients, read-out: AUClast, Median (range).
The mark [9] stands for this setting: plasma, oral, 400 mg, Day 21, with modafinil 400 mg QD, steady state, plasma, patients, read-out: T1/2, GM (CV%) (converted).
The mark [10] stands for this setting: plasma, oral, 400 mg, Day 21, with modafinil 400 mg QD, steady state, plasma, patients, read-out: T1/2, Median (range) (converted).
Setting [11] is: plasma, oral, Day 14, without modafinil, steady state, plasma, patients, read-out: AUClast, GM (CV%).
The mark [12] stands for this setting: plasma, oral, Day 14, without modafinil, steady state, plasma, patients, read-out: AUClast, Median (range).
Setting [13] is: plasma, oral, Day 14, without modafinil, steady state, plasma, patients, read-out: Cmax, Median (range).
Setting [14] is: plasma, oral, Day 14, without modafinil, steady state, plasma, patients, read-out: T1/2, GM (CV%) (converted).
[15] abbreviates: plasma, oral, Day 14, without modafinil, steady state, plasma, patients, read-out: T1/2, Median (range) (converted).
[16] abbreviates: plasma, po, Day 14, without modafinil, steady state, encorafenib 450 mg QD + binimetinib 45 mg BID oral, plasma, patients, read-out: Cmax, GM (CV%).
Setting [17] is: plasma, po, Day 21, with modafinil 400 mg QD Days 15-21, steady state, encorafenib 450 mg QD + binimetinib 45 mg BID oral, plasma, patients, read-out: Cmax, GM (CV%).

One may read the Cmax as the maximum level reached in the sampled fluid or tissue. One may read the Tmax as the time from dosing to the highest level.

SMILES strings stand for the structures. “Also recorded” adds a separate entry of the source. Where two headings read alike, the source gives them in different places.

With `Cn1cnc2c(F)c(Nc3ccc(Br)cc3F)c(C(=O)NOCCO)cc21` [Binimetinib, binimetinib], the “Contribution of UGT1A1-mediated metabolism to metabolism” value in the data set with UGT1A1 is listed as “up to 61%”. In addition, the “AUClast GMR (geometric mean ratio)” value in data set [1] came to 0.957. Further, the “Cmax GMR (geometric mean ratio)” value is on record as 1 in data set [1] and 1.00 in data set [1] (listed as binimetinib). In addition, in data set [1] (setting [6]), the “Cmax, Median (range)” value is given as 686 (424–923) ng/mL. In addition, the “Tmax, Median (range)” value in data set [1] (setting [6]) is reported as 1.00 (0.95–2.10) hr. In data set [1], the “Effect of steady-state modafinil on exposure/PK (in words)” value is on record as “similar; also recorded: no change”. For the same molecule, the “Time at which mean plasma concentrations typically reach peak levels, postdose” value in data set [1] (Days 14 and 21, steady state) is 1 h. For the same molecule, the AUC(0-t) amounted to 2290 ng·h/mL in data set [1] (setting [7]), 2430 ng·h/mL in data set [1] (setting [8]), 2400 ng·h/mL in data set [1] (setting [11]) and 2670 ng·h/mL in data set [1] (setting [12]). In addition, the half-life in data set [1] (setting [9]) is 273 min; in data set [1] (setting [10]), 268 min; in data set [1] (setting [14]) it was 277 min; in data set [1] (setting [15]), 309 min. Further, the Cmax came to 609 ng/mL in data set [1] (setting [13]), 660 ng/mL in data set [1] (setting [16]) and 663 ng/mL in data set [1] (setting [17]).
As for `COC(=O)N[C@@H](C)CNc1nccc(-c2cn(C(C)C)nc2-c2cc(Cl)cc(NS(C)(=O)=O)c2F)n1` [Encorafenib, encorafenib], the “Simulated decrease of exposures in combination with rifampin” value in data set [2] is listed as around 58%. In addition, the “AUClast GMR (geometric mean ratio)” value in data set [1] stood at 0.762. In data set [1], the “Cmax GMR (geometric mean ratio)” value amounted to 0.798. Besides, the “Effect of steady-state modafinil on exposure/PK (in words)” value in data set [1] was “weak effect”. For the same molecule, the Tmax in data set [1] (oral, Day 14, without modafinil, steady state, plasma, patients) came out at 1 h; in data set [1] (oral, Day 21, with modafinil 400 mg QD, steady state, plasma, patients) it was 1 h. Moreover, the AUC(0-t) in data set [1] (setting [7]) came to 9100 ng·h/mL; in data set [1] (setting [8]), 10000 ng·h/mL; in data set [1] (setting [11]) it was 11900 ng·h/mL; in data set [1] (setting [12]), 11800 ng·h/mL. The Cmax in data set [1] (plasma, oral, 400 mg, Day 21, with modafinil 400 mg QD, steady state, plasma, patients, read-out: Cmax, Median (range)) turned out to be 2750 ng/mL; in data set [1] (setting [13]), 3560 ng/mL; in data set [1] (setting [16]) it was 3540 ng/mL; in data set [1] (setting [17]) it was 2830 ng/mL. The half-life in data set [1] (setting [9]) was 214 min; in data set [1] (setting [10]), 228 min; in data set [1] (setting [14]), 209 min; in data set [1] (setting [15]), 210 min. In the data set on CYP2C19, the “Contribution of CYP2C19 to oxidative metabolism” value is around 16%. The “Expected reduction in AUC with a strong CYP3A inducer” value in data set [3] is listed as 28–58%. Moreover, the “Contribution of CYP3A4 to total oxidative clearance” value in the data set with CYP3A4 is around 83%. Moreover, the “Lower exposure at steady-state compared to following a single dose (auto-induction of CYP3A4)” value in data set [4] is reported as “approximately 50%”. Further, the “Increase in exposures on coadministration of moderate CYP3A4 inhibitor diltiazem” value in data set [5] was 2 fold. Besides, the “Increase in exposures on coadministration of strong CYP3A inhibitor posaconazole” value in data set [5] is given as 3 fold.

The record behind these values is article PMC11420244, “Evaluation of the effect of modafinil on the pharmacokinetics of encorafenib and binimetinib in patients with BRAF V600-mutant advanced solid tumors” (Cancer Chemotherapy and Pharmacology, 2024).
